According to ChEMBL document CHEMBL6153174, “Design and Synthesis of Novel Deazapurine DNMT 1 Inhibitors with In Vivo Efficacy in DLBCL” (J Med Chem, 2025):
Active and inactive are the calls of the source. The rule behind the calls is not given here.

Key:
[1] = system: DOHH-2; assay: Induction of apoptosis in human DOHH-2 cells assessed as early apoptotic cells measured after 48 hrs by annexin-V/FITC and PI staining based flow cytometry analysis; format: functional, cell-based; settings: dose 0.25-5 µM
[2] = system: TMD8; assay: Induction of apoptosis in human TMD8 cells assessed as late apoptotic cells at 10 uM measured after 48 hrs by annexin-V/FITC and PI staining based flow cytometry analysis (reference value: 5.13%); format: functional
[3] = system: TMD8; assay: Induction of apoptosis in human TMD8 cells assessed as early apoptotic cells measured after 48 hrs by annexin-V/FITC and PI staining based flow cytometry analysis; format: functional, cell-based; settings: dose 1-10 µM
[4] = system: TMD8; assay: Antitumor activity against human TMD8 cells xenografted in mouse model assessed as inhibition of DNA methylation at 10 mg/kg, iv administered three times a week; format: functional, organism-based
[5] = target: DNA (cytosine-5)-methyltransferase 3B (Homo sapiens, UniProt Q9UBC3); assay: Inhibition of DNMT3B (unknown origin) preincubated for 15 mins followed by substrate and [3H-SAM] addition and measured after 60 mins by microbeta analysis
[6] = system: A549; assay: Antiproliferative activity against human A549 cells assessed as inhibition of cell viability measured after 72 hrs by MTT assay; format: functional, cell-based; settings: A549, 72 h
[7] = system: TMD8; assay: Induction of apoptosis in human TMD8 cells assessed as early apoptotic cells at 5 uM measured after 48 hrs by annexin-V/FITC and PI staining based flow cytometry analysis (reference value: 9.15%); format: functional
[8] = system: DOHH-2; assay: Induction of cell cycle arrest in human DOHH-2 cells assessed as accumulation of cells at S phase at 0.5 uM incubated for 24 hrs by PI staining based flow cytometry analysis (reference value: 40.7%); format: functional
[9] = Toxicity in mouse assessed as effect on weight gain at 10 mg/kg, iv administered three times a week; format: organism-based; settings: in vivo
[10] = system: TMD8; assay: Induction of cell cycle arrest in human TMD8 cells assessed as accumulation of cells at G2/M phase at 1.0 uM incubated for 24 hrs by PI staining based flow cytometry analysis (reference value: 20.4%); format: functional
[11] = target: DNA (cytosine-5)-methyltransferase 1 (Homo sapiens, UniProt P26358); assay: Inhibition of DNMT1 (unknown origin) at 5 uM preincubated for 15 mins followed by substrate and [3H-SAM] addition and measured after 60 mins by microbeta analysis relative to control; settings: time 75.0 min
Chain of DNA (cytosine-5)-methyltransferase 1 (P26358 whole entry): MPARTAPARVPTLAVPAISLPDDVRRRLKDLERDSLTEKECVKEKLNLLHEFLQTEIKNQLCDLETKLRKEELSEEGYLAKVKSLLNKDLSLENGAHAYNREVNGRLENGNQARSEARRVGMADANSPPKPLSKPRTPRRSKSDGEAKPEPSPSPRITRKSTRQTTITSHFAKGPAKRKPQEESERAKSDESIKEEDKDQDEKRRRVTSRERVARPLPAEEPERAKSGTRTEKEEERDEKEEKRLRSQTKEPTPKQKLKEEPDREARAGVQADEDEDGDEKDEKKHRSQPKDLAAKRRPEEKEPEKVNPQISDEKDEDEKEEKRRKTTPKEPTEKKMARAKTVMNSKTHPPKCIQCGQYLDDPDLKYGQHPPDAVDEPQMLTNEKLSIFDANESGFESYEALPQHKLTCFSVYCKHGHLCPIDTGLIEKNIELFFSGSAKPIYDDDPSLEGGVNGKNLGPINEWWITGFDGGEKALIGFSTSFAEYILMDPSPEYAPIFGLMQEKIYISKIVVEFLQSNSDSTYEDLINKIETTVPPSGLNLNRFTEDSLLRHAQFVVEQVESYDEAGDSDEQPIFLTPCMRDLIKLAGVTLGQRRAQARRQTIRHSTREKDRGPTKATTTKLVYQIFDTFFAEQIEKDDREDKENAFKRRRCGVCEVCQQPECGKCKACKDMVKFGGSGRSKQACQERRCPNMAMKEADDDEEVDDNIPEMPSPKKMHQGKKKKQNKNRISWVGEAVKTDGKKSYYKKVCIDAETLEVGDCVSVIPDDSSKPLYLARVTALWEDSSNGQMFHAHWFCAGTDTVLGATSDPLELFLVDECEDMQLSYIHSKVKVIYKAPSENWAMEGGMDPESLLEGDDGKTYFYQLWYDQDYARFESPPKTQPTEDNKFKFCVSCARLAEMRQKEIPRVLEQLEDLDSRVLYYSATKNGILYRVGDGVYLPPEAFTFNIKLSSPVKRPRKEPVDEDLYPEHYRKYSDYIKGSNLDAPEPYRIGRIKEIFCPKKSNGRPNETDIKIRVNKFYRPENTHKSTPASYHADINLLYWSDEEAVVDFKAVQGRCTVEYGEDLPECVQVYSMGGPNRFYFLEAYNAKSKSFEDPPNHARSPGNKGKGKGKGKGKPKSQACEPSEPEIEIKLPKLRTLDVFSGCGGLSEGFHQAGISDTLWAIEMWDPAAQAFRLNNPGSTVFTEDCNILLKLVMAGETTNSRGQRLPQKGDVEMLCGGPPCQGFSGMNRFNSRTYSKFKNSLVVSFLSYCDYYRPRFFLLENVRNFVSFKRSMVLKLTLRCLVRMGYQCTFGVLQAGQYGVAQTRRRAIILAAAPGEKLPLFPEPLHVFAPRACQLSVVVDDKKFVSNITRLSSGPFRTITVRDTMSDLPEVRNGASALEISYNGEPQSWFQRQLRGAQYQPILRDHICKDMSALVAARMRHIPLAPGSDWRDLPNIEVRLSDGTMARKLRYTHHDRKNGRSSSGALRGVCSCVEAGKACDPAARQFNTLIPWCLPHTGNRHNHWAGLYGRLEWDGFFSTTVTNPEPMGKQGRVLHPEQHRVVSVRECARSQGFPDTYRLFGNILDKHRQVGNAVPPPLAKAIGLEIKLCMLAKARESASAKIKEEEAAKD

[12] = system: HepG2; assay: Antiproliferative activity against human HepG2 cells assessed as inhibition of cell viability measured after 72 hrs by MTT assay; format: functional, cell-based; settings: HepG2, 72 h
[13] = target: T1, Histone-lysine N-methyltransferase EHMT2 (Homo sapiens) (UniProt Q96KQ7); assay: Inhibition of G9a (unknown origin) at 5 uM preincubated for 15 mins followed by substrate and [3H-SAM] addition and measured after 60 mins by microbeta analysis relative to control; settings: time 75.0 min
T1 sequence (whole entry): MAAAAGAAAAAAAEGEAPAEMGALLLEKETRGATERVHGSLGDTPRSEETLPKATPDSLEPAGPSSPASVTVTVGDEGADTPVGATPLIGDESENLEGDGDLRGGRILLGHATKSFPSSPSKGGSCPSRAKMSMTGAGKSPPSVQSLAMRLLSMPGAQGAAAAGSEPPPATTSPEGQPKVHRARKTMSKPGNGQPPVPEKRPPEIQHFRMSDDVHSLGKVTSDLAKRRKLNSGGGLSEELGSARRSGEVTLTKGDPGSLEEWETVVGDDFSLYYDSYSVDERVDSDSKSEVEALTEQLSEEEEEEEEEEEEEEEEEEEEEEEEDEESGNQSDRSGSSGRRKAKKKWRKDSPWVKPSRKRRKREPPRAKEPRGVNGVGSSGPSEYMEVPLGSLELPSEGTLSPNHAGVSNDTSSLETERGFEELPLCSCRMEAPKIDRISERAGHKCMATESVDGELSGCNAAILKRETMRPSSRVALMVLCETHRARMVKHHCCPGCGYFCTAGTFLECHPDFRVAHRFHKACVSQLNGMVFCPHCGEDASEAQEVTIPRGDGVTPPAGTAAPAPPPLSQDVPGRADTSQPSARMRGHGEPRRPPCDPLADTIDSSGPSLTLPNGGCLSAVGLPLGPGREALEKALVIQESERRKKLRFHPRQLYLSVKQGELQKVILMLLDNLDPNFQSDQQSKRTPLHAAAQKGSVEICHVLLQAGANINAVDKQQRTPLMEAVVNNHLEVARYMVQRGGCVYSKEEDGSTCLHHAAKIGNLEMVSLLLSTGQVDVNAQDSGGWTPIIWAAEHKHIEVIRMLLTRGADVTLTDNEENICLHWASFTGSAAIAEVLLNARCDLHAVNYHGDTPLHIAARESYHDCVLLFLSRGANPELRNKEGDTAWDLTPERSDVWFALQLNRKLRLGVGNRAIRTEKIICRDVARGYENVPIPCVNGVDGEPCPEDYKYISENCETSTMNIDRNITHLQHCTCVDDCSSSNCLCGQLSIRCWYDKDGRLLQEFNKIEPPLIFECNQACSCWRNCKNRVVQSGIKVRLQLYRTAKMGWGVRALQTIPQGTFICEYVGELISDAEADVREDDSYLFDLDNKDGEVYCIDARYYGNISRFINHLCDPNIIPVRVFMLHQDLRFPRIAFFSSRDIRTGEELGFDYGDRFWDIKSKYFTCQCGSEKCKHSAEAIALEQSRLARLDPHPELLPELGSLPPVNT

[14] = system: MDA-MB-231; assay: Antiproliferative activity against human MDA-MB-231 cells assessed as inhibition of cell viability measured after 72 hrs by MTT assay; format: functional, cell-based; settings: MDA-MB-231, 72 h
[15] = system: DOHH-2; assay: Antiproliferative activity against human DOHH-2 cells assessed as inhibition of cell viability measured after 72 hrs by MTT assay; format: functional, cell-based; settings: DOHH-2, 72 h
[16] = system: TMD8; assay: Induction of apoptosis in human TMD8 cells assessed as late apoptotic cells at 1 uM measured after 48 hrs by annexin-V/FITC and PI staining based flow cytometry analysis (reference value: 5.13%); format: functional
[17] = system: NCI-H1299; assay: Antiproliferative activity against human NCI-H1299 cells assessed as inhibition of cell viability measured after 72 hrs by MTT assay; format: functional, cell-based; settings: NCI-H1299, 72 h
[18] = system: DOHH-2; assay: Induction of cell cycle arrest in human DOHH-2 cells assessed as accumulation of cells at G0-G1 phase incubated for 24 hrs by PI staining based flow cytometry analysis; format: functional; settings: dose 0.25-1 µM
[19] = Antitumor activity against human TMD8 cells harbouring TP53 mutant xenografted in mouse model assessed as tumor inhibition rate at 10 mg/kg, iv administered three times a week in presence of chidamide relative to control; format: functional; parameters: scale not given: the % may be the effect or the level left
[20] = system: MV4-11; assay: Antiproliferative activity against human MV4-11 cells assessed as inhibition of cell viability measured after 72 hrs by MTT assay; format: functional, cell-based; settings: MV4-11, 72 h
[21] = system: TMD8; assay: Induction of cell cycle arrest in human TMD8 cells assessed as accumulation of cells at G2/M phase at 0.5 uM incubated for 24 hrs by PI staining based flow cytometry analysis (reference value: 20.4%); format: functional
[22] = Volume of distribution at steady state in Sprague-Dawley rat at 10 mg/kg, iv measured upto 24 hrs by LC/MS/MS analysis; format: ADME, organism-based; settings: in vivo, read-out: Vdss

IC50 [5]: > 20000 nM | IC50 [6]: 720 nM | inhibition [11]: 75% | IC50 [12]: 2880 nM | inhibition [13]: 0.3% | IC50 [14]: 3910 nM | IC50 [17]: 2380 nM | IC50 [20]: 950 nM | Vd [22]: 102 L/kg
SMILES: CN1CCC(Nc2nc(-c3ccnc(F)c3)nc3c2ccn3CCCN2CCCC2)CC1
Activity [1]: Dose-dependent-effect | Activity [2]: 12.9% | Activity [3]: Dose-dependent-effect | Activity [4]: Active | Activity [7]: 41.3% | Activity [8]: 26.6% | Activity [9]: Non-toxic | Activity [10]: 38.2% | IC50 [15]: 190 nM | Activity [16]: 6.88% | Activity [18]: Dose-dependent-effect | Activity [19]: 83.2% | Activity [21]: 28.8%
